Results published in article PMC10880585 (ACS infectious diseases, 2023).
Where two headings read alike, the source gives them in different places.

Legend:
P. falciparum strain 3D7 [1] = assay: P. falciparum growth inhibition assay; format: cell-based, Plasmodium falciparum; conditions: read-out: Pf IC50
[2] = following iv dosing; cited from earlier work
[3] = tested on: HAD1 mutant P. falciparum strain; assay: Growth inhibition of had1 mutant P. falciparum; format: cell-based, Plasmodium falciparum; conditions: had1 mutant vs wild-type 3D7
P. falciparum strain 3D7 [4] = assay: IPP rescue of P. falciparum growth inhibition; conditions: 250 μM IPP added to culture media, 72 h
P. falciparum DXR [5] = target: T1, P. falciparum DXR (Plasmodium falciparum, UniProt O96693); assay: biochemical
T1 sequence (O96693 73-488): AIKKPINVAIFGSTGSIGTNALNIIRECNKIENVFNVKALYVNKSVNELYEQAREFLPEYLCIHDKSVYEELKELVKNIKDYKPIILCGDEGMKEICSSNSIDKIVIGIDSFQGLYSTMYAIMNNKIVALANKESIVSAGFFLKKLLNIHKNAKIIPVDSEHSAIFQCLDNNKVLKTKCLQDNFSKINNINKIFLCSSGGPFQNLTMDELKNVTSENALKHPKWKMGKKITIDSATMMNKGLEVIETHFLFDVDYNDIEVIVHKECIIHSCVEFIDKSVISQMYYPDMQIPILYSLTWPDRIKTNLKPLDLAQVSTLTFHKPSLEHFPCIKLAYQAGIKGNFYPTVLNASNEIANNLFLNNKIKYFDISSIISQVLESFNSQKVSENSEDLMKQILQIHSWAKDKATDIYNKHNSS

HepG2 cells = assay: HepG2 cytotoxicity assay; conditions: for IC50: Homo sapiens, HepG2, 24 h, read-out: HepG2 IC50; for cytotoxicity against HepG2: result in words
[6] = Metabolic stability in mouse liver microsomes
P. falciparum DXR [7] = target: T1, P. falciparum DXR
[8] = Plasmodium falciparum, 3D7, Erythrocyte, 72 h

For `CCOP(=O)(/C=C/CN(O)C(=O)CCCc1ccccc1)OCC` [10d, Diethyl [(1E)-3-(N-Hydroxy-4-phenylbutanamido)prop-1-en-1-yl]phosphonate], which IC50 (P. falciparum strain 3D7 [1]; [8]) is on record?
The IC50 was 31200 nM.

With `CCOP(=O)(/C=C/CN(O)C(=O)c1ccccc1)OCC` [10a, Diethyl [(1E)-3-(N-Hydroxy-1-phenylformamido)prop-1-en-1-yl]phosphonate] as the compound, how does the IC50 (P. falciparum strain 3D7 [1]; [8]) read?
Its IC50 is > 319000 nM.

Which IC50 (P. falciparum strain 3D7 [1]; [8]) does the source give for `CC(C)(C)C(=O)OCOP(=O)(/C=C/CN(O)C(=O)CCCc1ccccc1)OCOC(=O)C(C)(C)C` [13d, [({[(2,2-Dimethylpropanoyl)oxy]methoxy}[(1E)-3-(N-hydroxy-4-phenylbutanamido)prop-1-en-1-yl]phosphoryl)-oxy]methyl 2,2-Dimethylpropanoate] here?
The IC50 was 4550 nM.

Which renal excretion [2] does the source give for `O=CN(O)CCCP(=O)(O)O` [compound 1, Fosmidomycin, reference compound] here?
The renal excretion was 85%.

And the “resistance of parasites with elevated intracellular DXP” value [3]?
Its value is “higher resistance”.

What about the IC50 (P. falciparum strain 3D7 [1]; [8]) of the same compound?
Its IC50 is 1020 nM.

What about the “rescue of treated parasites by IPP” value (P. falciparum strain 3D7 [4]) of the same compound?
Its value is “rescued”.

With `CCOP(=O)(/C=C/CN(O)C(=O)CCc1ccccc1)OCC` [10c, Diethyl [(1E)-3-(N-Hydroxy-3-phenylpropanamido)prop-1-en-1-yl]phosphonate] as the compound, how does the IC50 (P. falciparum strain 3D7 [1]; [8]) read?
The IC50 was > 293000 nM.

For `O=C(Cc1ccccc1)N(O)C/C=C/P(=O)(O)O` [11b, Sodium Hydrogen [(1E)-3-(N-Hydroxy-2-phenylacetamido)prop-1-en-1-yl]phosphonate], which IC50 (P. falciparum DXR [5]) is on record?
Its IC50 is 170 nM.

What about the IC50 (P. falciparum strain 3D7 [1]; [8]) of the same compound?
The IC50 was 468 nM.

With `N.N.O=C(c1ccccc1)N(O)C/C=C/P(=O)(O)O` [compound 11a, Diammonium [(1E)-3-(N-Hydroxy-1-phenylformamido)-prop-1-en-1-yl]phosphonate] as the compound, how does the IC50 (HepG2 cells) read?
Its IC50 is > 50000 nM.

And the “cytotoxicity against HepG2” value (HepG2 cells)?
Its value is “non-toxic”.

What about the “time stable in MLM” value ([6]; mouse liver microsomes) of the same compound?
The value was “over 1 h”.

What about the “resistance of parasites with elevated intracellular DXP” value [3] of the same compound?
Its value is “resistant”.

What about the “improvement in activity against the enzyme” value (P. falciparum DXR [7]; 11a vs saturated compound 4) of the same compound?
The value was 2 fold.

And the IC50 (P. falciparum strain 3D7 [1]; [8])?
The IC50 was 369 nM.

What about the “rescue of treated parasites by IPP” value (P. falciparum strain 3D7 [4]) of the same compound?
The value was “rescued”.

Which IC50 (P. falciparum strain 3D7 [1]; […], 3 days, PicoGreen) does the source give for `CC(=O)N(O)CCCP(=O)(O)O` [compound 2, FR-900098, reference compound] here?
The IC50 was 511 nM.

For `O=C(CCc1ccccc1)N(O)C/C=C/P(=O)(O)O` [11c, Sodium Hydrogen [(1E)-3-(N-hydroxy-3-phenylpropanamido)prop-1-en-1-yl]phosphonate], which IC50 (P. falciparum DXR [5]) is on record?
Its IC50 is 1340 nM.

What about the IC50 (P. falciparum strain 3D7 [1]; [8]) of the same compound?
The IC50 was 10800 nM.

Which results are given for `CC(C)(C)C(=O)OCOP(=O)(/C=C/CN(O)C(=O)c1ccccc1)OCOC(=O)C(C)(C)C` [13a, [({[(2,2-Dimethylpropanoyl)oxy]methoxy}[(1E)-3-(N-hydroxy-1-phenylformamido)-prop-1-en-1-yl]phosphoryl)oxy]-methyl 2,2-dimethylpropanoate]?
IC50 (HepG2 cells): > 50000 nM; cytotoxicity against HepG2 (HepG2 cells): non-toxic; half-life at 1 μM ([6]; mouse, liver microsomes, pH 7.4): < 5 min; resistance of parasites with elevated intracellular DXP [3]: resistant; IC50 (P. falciparum strain 3D7 [1]; [8]): 200 nM; rescue of treated parasites by IPP (P. falciparum strain 3D7 [4]): rescued

With `O=C(CCCc1ccccc1)N(O)C/C=C/P(=O)(O)O` [11d, Sodium Hydrogen [(1E)-3-(N-Hydroxy-4-phenylbutanamido)prop-1-en-1-yl]phosphonate] as the compound, how does the IC50 (P. falciparum DXR [7]; read-out: Pf DXR IC50) read?
The IC50 was 898 nM.

And the IC50 (P. falciparum strain 3D7 [1]; [8])?
Its IC50 is 4980 nM.

For `CC(C)(C)C(=O)OCOP(=O)(/C=C/CN(O)C(=O)Cc1ccccc1)OCOC(=O)C(C)(C)C` [13b, [({[(2,2-Dimethylpropanoyl)oxy]methoxy}[(1E)-3-(N-hydroxy-2-phenylacetamido)prop-1-en-1-yl]phosphoryl)oxy]-methyl 2,2-Dimethylpropanoate], which IC50 (P. falciparum strain 3D7 [1]; [8]) is on record?
The IC50 was 304 nM.

Which IC50 (P. falciparum strain 3D7 [1]; [8]) does the source give for `CCOP(=O)(/C=C/CN(O)C(=O)Cc1ccccc1)OCC` [10b, Diethyl [(1E)-3-(N-Hydroxy-2-phenylacetamido)prop-1-en-1-yl]phosphonate] here?
Its IC50 is 337000 nM.
